In PMC4697807, “Novel Zn^2+ Modulated GPR39 Receptor Agonists Do Not Drive Acute Insulin Secretion in Rodents” (PLoS ONE, 2015):

Key:
DIO mice = assay: IPGTT in DIO mice; format: in vivo, mouse; conditions: 100 mg/kg group, IP; group terminated
Description: Six-week-old male C57BL/6J mice were purchased from CLEA (Tokyo, Japan). Fourteen-week-old and fifteen-week-old male DIO mice were purchase from Charles River Japan (Yokohama, Japan). They were used after at least one week acclimation period. C57BL/6J mice were allowed free access to a normal diet (CRF-1, Oriental Yeast, Tokyo, Japan). DIO mice were allowed free access to a high-fat diet with 60 kcal% fat (D12492, Research Diets, New Brunswick, NJ). They were kept under standard 12-h light/dark cycle. Animal experiments were approved by the Institutional Animal Care and Use Committee of Mitsubishi Tanabe Pharma Corporation.
Fifteen-week-old and twenty one-week-old DIO mice were used. The mice were fasted for 3 h and were randomly grouped based on the body weight. Five ml/kg of a solution of vehicle (10% DMF/18% Cremophore) or compounds were administered IP. Thirty min later, 1.0 g/10 ml/kg of glucose solution was administered IP. Blood samples were obtained from the tail vein at -30, 0, 15, 30, 60, and 120 min after glucose challenge. Plasma glucose and insulin were measured.
Statistical analysis was performed using SAS9.1.3 with student’s t-test or Dunnett’s test. All data were expressed as mean ± standard error of mean (SEM). P values of <0.05 were considered to be statistically significant.

[1] = Unbound plasma exposure in the IPGTT; format: in vivo, mouse; conditions: 0-30 min after glucose challenge; IP; lean mice
Description: Plasma protein binding of test compound was examined by an equilibrium dialysis method. The compound was mixed with blank mouse plasma to a concentration of 10 μM. The plasma sample and PBS were added to a sample chamber and a buffer chamber of an equilibrium dialysis device, respectively. The device was incubated for 4 h at 37°C in a CO2 incubator (oscillation: 180 rpm). After incubation, an aliquot in each chamber was collected. They were mixed with acetonitrile/methanol (50/50, v/v) and were centrifuged. The supernatants were analyzed by LC-MS/MS. Plasma unbound fraction (f) was calculated by Eq 2, f=Cf/Ct (2) where Cf and Ct represent the compound concentration in the buffer and sample chamber, respectively. […]
The unbound plasma concentrations were calculated by correcting the total plasma concentration derived from the LC/MS analysis by the free fraction, f u. The exposure in terms of the area under the unbound concentration-time curve in the interval 30–60 min after drug administration AUCu 30–60min, i.e. the interval 0–30 min after glucose challenge, was calculated using the linear up-log down trapezoidal method in the non compartmental module of Phoenix 6.2 (Pharsight). […] The ratio between C u,av and the EC 50 of the different in vitro potency assays was calculated for each compound and dose administered.

Structure (SMILES)	adverse findings (DIO mice)	average in vivo exposure (C u,av), unbound [1] [µM]
N#Cc1ccc(OCCn2ccnc2)c(OCCn2ccnc2)c1 [AZ1395, 3,4-bis-(2-imidazol-1-ylethoxy)-benzonitrile]	severe hyperglycemia and associated morbidity/mortality in some animals	–
Cc1nc(-c2nc3c(c(=O)[nH]2)CN(C(=O)c2cccc(Cl)c2F)CC3)cs1 [AZ7914, 6-(3-chloro-2-fluoro-benzoyl)-2-(2-methylthiazol-4-yl)-3,5,7,8-tetrahydropyrido-[4,3-d]pyrimidin-4-one]	–	29
Cc1nc2c(C(=O)O)cnn2c(O)c1Cc1ccc(Cl)cc1 [AZ4237, 6-[(4-chlorophenyl)methyl]-7-hydroxy-5-methyl-pyrazolo[1,5-a]pyrimidine-3-carboxylic acid]	–	19
